From ChEMBL document CHEMBL1127215, “()-7-deazaaristeromycin lacking the hydroxymethyl substituent” (Bioorg Med Chem Lett, 1993)
≈ marks a conversion by molar mass, not a printed value.

Key:
Adenosylhomocysteinase = Adenosylhomocysteinase (Homo sapiens, UniProt P23526); test: Tested for inhibitory concentration against S-adenosyl-homocysteine hydrolase
E6SM [1] = test: Tested for antiviral activity against HSV-1 (KOS) in E6SM cells; assay type: functional; settings: Homo sapiens
E6SM [2] = test: Tested for antiviral activity against HSV-2 (G) in E6SM cells; assay type: functional; settings: Homo sapiens
E6SM [3] = test: Tested for antiviral activity against TK-HSV-1 (B2006) in E6SM cells; assay type: functional; settings: Homo sapiens
E6SM [4] = test: Tested for toxicity against morphology of E6SM cells; assay type: functional; settings: Homo sapiens
HeLa [5] = test: Tested for antiviral activity against respiratory syncytial (long) in HeLa cells; assay type: functional; settings: Homo sapiens
HeLa [6] = test: Tested for toxicity against morphology of HeLa cells; assay type: functional; settings: Homo sapiens
HeLa [7] = test: Tested for antiviral activity against coxsackie B4 in HeLa cells; assay type: functional; settings: Homo sapiens
HEL [8] = test: Tested for anti-HCMV activity using AD-169 and Davis strains in HEL cells; assay type: functional; settings: Homo sapiens
HEL [9] = test: Tested for effect on HEL cells growth viability for anti-HCMV activity; assay type: functional; settings: Homo sapiens
MDCK = test: Tested for toxicity against morphology of MDCK cells; assay type: functional; settings: Canis lupus familiaris
MT4 [10] = test: Tested for antiviral activity against HIV-1 (IIIB/LAI) in MT-4 cells; assay type: functional; settings: Homo sapiens
MT4 [11] = test: Tested for antiviral activity against HIV-2 (ROD) in MT-4 cells; assay type: functional; settings: Homo sapiens
MT4 [12] = test: Tested for toxicity against growth/viability of MT-4 cells; assay type: functional; settings: Homo sapiens
Vero [13] = test: Tested for toxicity against morphology of vero cells; assay type: functional; settings: Chlorocebus sabaeus
Vero [14] = test: Tested for antiviral activity against Junin in vero cells; assay type: functional; settings: Chlorocebus sabaeus
Vero [15] = test: Tested for antiviral activity against forest in vero cells; assay type: functional; settings: Chlorocebus sabaeus
Vero [16] = test: Tested for antiviral activity against Sindbis in vero cells; assay type: functional; settings: Chlorocebus sabaeus
Vero [17] = test: Tested for antiviral activity against Tacaribe in vero cells; assay type: functional; settings: Chlorocebus sabaeus
Vero [18] = test: Tested for antiviral activity against coxsackie B4 in vero cells; assay type: functional; settings: Chlorocebus sabaeus
Vero [19] = test: Tested for antiviral activity against parainfluenza 3 (VR-93) in vero cells; assay type: functional; settings: Chlorocebus sabaeus
Vero [20] = test: Tested for antiviral activity against reo-1 in vero cells; assay type: functional; settings: Chlorocebus sabaeus

Chain of Adenosylhomocysteinase (P23526 whole entry): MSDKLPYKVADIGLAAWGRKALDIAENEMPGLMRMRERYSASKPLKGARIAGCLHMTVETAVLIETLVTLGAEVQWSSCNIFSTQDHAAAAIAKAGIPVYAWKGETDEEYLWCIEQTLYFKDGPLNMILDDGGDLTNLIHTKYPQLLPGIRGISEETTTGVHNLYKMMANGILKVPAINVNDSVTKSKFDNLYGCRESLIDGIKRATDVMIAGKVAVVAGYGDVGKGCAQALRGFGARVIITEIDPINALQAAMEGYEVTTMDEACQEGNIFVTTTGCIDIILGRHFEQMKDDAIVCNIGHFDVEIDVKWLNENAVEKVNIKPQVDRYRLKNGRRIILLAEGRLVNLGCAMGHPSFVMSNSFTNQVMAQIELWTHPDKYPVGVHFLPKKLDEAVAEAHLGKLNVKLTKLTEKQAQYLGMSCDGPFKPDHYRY

`Nc1ncnc2c1ncn2C[C@H](O)CO` [(S)-DHPA] gave an IC50 (Adenosylhomocysteinase) of 280 nM.

`Nc1ncnc2c1ncn2[C@@H]1C=C(CO)[C@@H](O)[C@H]1O` [NEOPLANOCIN A] was tested, and the IC50 (Adenosylhomocysteinase) was 7.2 nM.

For `Nc1ncnc2c1ccn2C1CCC(O)C1O` (stereo not given), the MIC50 (E6SM [1]) was over 200 µg/mL, the MIC50 (E6SM [2]) was over 200 µg/mL and the MIC50 (E6SM [3]) was over 200 µg/mL. It also gave an MIC50 (E6SM [4]) of over 200 µg/mL, an MIC50 (HeLa [5]) of over 100 µg/mL and an MIC50 (HeLa [6]) of over 200 µg/mL. For the same compound, the MIC50 (HeLa [7]) was over 200 µg/mL, the MIC50 (HEL [8]) was 18 µg/mL (≈ 76.8 µM) and the MIC50 (HEL [9]) was 130 µg/mL (≈ 555 µM). For the same compound, the MIC50 (MDCK) was over 100 µg/mL, the MIC50 (MT4 [10]) was over 130 µg/mL and the MIC50 (MT4 [11]) was over 130 µg/mL. For the same compound, the MIC50 (MT4 [12]) was over 130 µg/mL, the IC50 (Adenosylhomocysteinase) was over 100000 nM and the MIC50 (Vero [13]) was over 200 µg/mL. The MIC50 (Vero [14]) was 84 µg/mL (≈ 359 µM), the MIC50 (Vero [15]) was over 200 µg/mL and the MIC50 (Vero [16]) was over 200 µg/mL. For the same compound, the MIC50 (Vero [17]) was 64 µg/mL (≈ 273 µM), the MIC50 (Vero [18]) was over 200 µg/mL and the MIC50 (Vero [19]) was 150 µg/mL (≈ 640 µM). It also gave an MIC50 (Vero [20]) of over 200 µg/mL.

Compound `Nc1ccnc2c1ncn2[C@@H]1C[C@H](CO)[C@@H](O)[C@H]1O` has an IC50 (Adenosylhomocysteinase) of 18 nM.
